Earlier results as cited in patent US9878049B2, “High drug loading system to co-deliver anticancer drugs and nucleic acids for cancer therapy” (THE UNIVERSITY OF AKRON, priority 2013, dated 2018).

Conditions: general statement, no test described

For CC[C@@]1(O)C(=O)OCc2c1cc1n(c2=O)Cc2cc3ccccc3nc2-1 [CPT, Camptothecin], the water solubility is given as “low water solubility”.
